Publication PMC9886271 (Drug metabolism and pharmacokinetics, 2022)
“Also recorded” adds a separate entry of the source. Counter-ions that a name gives are not always drawn.

What was measured:
[1] = system: human liver microsomes (HLM); settings: HLM; for Vmax, best fit value: formation of EDDP/d6-EDDP, mean ± S.E.
[2] = system: postoperative mechanical hypersensitivity in mice; test: Postoperative pain model; settings: post-operative treatment, 3 mg/kg i.p., once daily for 4 days; for effect on postoperative mechanical hypersensitivity: 3 mg/kg
[3] = Tissue distribution after single i.v. injection; settings: for rank order of the extent of exposure of the organs to the parent drug: i.v. administration; for Metabolite Tissue AUC0–8h, Brain / Metabolite Tissue AUC0–8h, Heart / Metabolite Tissue AUC0–8h, Kidney / Metabolite Tissue AUC0–8h, Liver / Metabolite Tissue AUC0–8h, Lung / Metabolite Tissue AUC0–8h, Spleen: after 2.0 mg/kg i.v. of the parent drug; for rank order of the extent of exposure of the organs to the metabolite: after i.v. parent drug
[4] = system: mouse liver microsomes (MLM); settings: MLM; for Vmax, best fit value: formation of EDDP/d6-EDDP, mean ± S.E.
[5] = human, pH 7.4
[6] = In vivo toxicity, Up-and-Down method, single i.v. dose via tail vein; settings: male, CD-1, mouse, iv
Swiss mice = settings: intraperitoneal (i.p.); cited from earlier work
[7] = male, CD-1, mouse, pH 7.4
[8] = Plasma pharmacokinetics after single i.v. injection; settings: for AUC0–8h (metabolite) / Cmax (metabolite) / Tmax (metabolite): metabolite in plasma after 2.0 mg/kg i.v. of the parent drug

## [2H]C([2H])([2H])CC(=O)C(CC(C)N(C([2H])([2H])[2H])C([2H])([2H])[2H])(c1ccccc1)c1ccccc1 (racemic) [d9-methadone, (±)-d9-methadone]
[1]
  deuteration effect on Vmax (HVmax/DVmax): 2.5
  Vmax, best fit value: 438 ± 27 pmol·min^−1·mg of protein^−1
[2]
  development of analgesic tolerance: no development of the apparent analgesic tolerance
  effect on postoperative mechanical hypersensitivity: alleviated hypersensitivity after each systemic injection; also recorded: significantly relieved postoperative mechanical hypersensitivity
[3]
  rank order of the extent of exposure of the organs to the parent drug: lungs > kidneys ≈ liver > spleen > heart > brain
[4]
  deuteration effect on Vmax (HVmax/DVmax): 2.5
  Vmax, best fit value: 1033 ± 45 pmol·min^−1·mg of protein^−1

## CCC(=O)C(CC(C)N(C)C)(c1ccccc1)c1ccccc1 (racemic) [methadone, (±)-Methadone hydrochloride, reference compound]
[5]
  Km at 20 min: 82.9 ± 3.7 µM
[1]
  Vmax, best fit value: 1116 ± 17 pmol·min^−1·mg of protein^−1
[2]
  effect on postoperative mechanical hypersensitivity: completely ineffective
[2]; listed as Methadone
  effect on postoperative mechanical hypersensitivity: unable to reduce the postoperative mechanical hypersensitivity
[3]
  rank order of the extent of exposure of the organs to the parent drug: kidneys ≈ lungs > spleen > liver > heart > brain
[6]
  LD50 at 20 min: 11.6 mg/kg
Swiss mice
  LD50: 41 mg/kg
[7]
  Km at 10 min: 53.5 ± 5.1 µM
[4]
  Vmax, best fit value: 2631 ± 121 pmol·min^−1·mg of protein^−1

## CC=C1N(C)C(C)CC1(c1ccccc1)c1ccccc1 (stereo not drawn) [EDDP, 2-ethylidene-1,5-dimethyl-3,3,-diphenylpyrrolidine]
[3]
  Metabolite Tissue AUC0–8h, Brain: 8.96 ± 5.26 ng·h/g
  Metabolite Tissue AUC0–8h, Heart: 2155 ± 144 ng·h/g
  Metabolite Tissue AUC0–8h, Kidney: 2815 ± 226 ng·h/g
  Metabolite Tissue AUC0–8h, Liver: 5608 ± 218 ng·h/g
  Metabolite Tissue AUC0–8h, Lung: 9672 ± 856 ng·h/g
  Metabolite Tissue AUC0–8h, Spleen: 622 ± 45 ng·h/g
  rank order of the extent of exposure of the organs to the metabolite: lungs > liver > kidney ≈ heart > spleen
[8]
  AUC0–8h (metabolite): 257 ± 29 ng·h/mL
  Cmax (metabolite): 233 ± 28 ng/mL
  Tmax (metabolite): 8.4 ± 6 min

## [2H]C([2H])([2H])C1CC(c2ccccc2)(c2ccccc2)C(=CC)N1C([2H])([2H])[2H] (stereo not drawn) [d6-EDDP]
[3]; after 2.0 mg/kg i.v. d9-methadone, every time point
  concentration of the metabolite in the brain: below the lower limit of quantification
[3]
  Metabolite Tissue AUC0–8h, Brain: <LLOQ^§
  Metabolite Tissue AUC0–8h, Heart: 1243 ± 254 ng·h/g
  Metabolite Tissue AUC0–8h, Kidney: 1562 ± 207 ng·h/g
  Metabolite Tissue AUC0–8h, Liver: 4375 ± 513 ng·h/g
  Metabolite Tissue AUC0–8h, Lung: 9886 ± 614 ng·h/g
  Metabolite Tissue AUC0–8h, Spleen: 411 ± 33 ng·h/g
  rank order of the extent of exposure of the organs to the metabolite: lungs > liver > kidney ≈ heart > spleen
[8]; after i.v. parent drug
  plasma AUC0–8h of d6-EDDP, fold lower than AUC0–8h of EDDP: 2 fold
  plasma Cmax of d6-EDDP, fold lower than Cmax of EDDP: 5 fold
[8]
  AUC0–8h (metabolite): 138 ± 25 ng·h/mL
  Cmax (metabolite): 48 ± 7 ng/mL
  Tmax (metabolite): 19.8 ± 8.4 min
